Assay results: US4401604A, “Process for preparing thiosulfenamide derivatives of N-phosphonomethylglycine triesters” (Monsanto Company, priority 1981, dated 1983)

Legend:
Format in all cases: in vivo
[1] = test system: Canada Thistle; assay: Post-emergence herbicidal activity, greenhouse; conditions: Table I, 4 WAT
How it was run: (§1)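 2–3-week-old plants, post-emergence atomizer spray, ~0.4% emulsifier; candidate from 1.0% stock in acetone, THF or water. Greenhouse hold; injury vs control at ~2/4 WAT.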

[2] = test system: Cocklebur; assay: Post-emergence herbicidal activity, greenhouse
How it was run: as §1

[3] = test system: Crabgrass; assay: Post-emergence herbicidal activity, greenhouse; conditions: Table II
How it was run: as §1

[4] = test system: Hemp Sesbania; assay: Post-emergence herbicidal activity, greenhouse; conditions: Table II
How it was run: as §1

[5] = test system: Johnsongrass; assay: Post-emergence herbicidal activity, greenhouse; conditions: Table I, 4 WAT
How it was run: as §1

[6] = test system: Lambsquarters; assay: Post-emergence herbicidal activity, greenhouse
How it was run: as §1

[7] = test system: Morningglory; assay: Post-emergence herbicidal activity, greenhouse
How it was run: as §1

[8] = test system: Panicum Spp; assay: Post-emergence herbicidal activity, greenhouse; conditions: Table II
How it was run: as §1

[9] = test system: Quackgrass; assay: Post-emergence herbicidal activity, greenhouse; conditions: Table I, 4 WAT
How it was run: as §1

[10] = test system: Smartweed; assay: Post-emergence herbicidal activity, greenhouse
How it was run: as §1

[11] = test system: Velvetleaf; assay: Post-emergence herbicidal activity, greenhouse
How it was run: as §1

[12] = test system: Barnyardgrass; assay: Pre-emergent herbicidal activity; conditions: Table III; 11.2 kg/h; 2 WAT
How it was run: (§2)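 Emergence counts versus untreated controls, taken after approximately two weeks on a wet sand bench, give an index of average percent control per species. The active ingredient, at a known amount, is blended into the soil that covers seeds pressed onto compacted top soil; watering occurs through the pan bottoms.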

[13] = test system: Canada Thistle; assay: Pre-emergent herbicidal activity; conditions: Table III; 11.2 kg/h; 2 WAT
How it was run: as §2

[14] = test system: Cocklebur; assay: Pre-emergent herbicidal activity; conditions: Table III; 11.2 kg/h; 2 WAT
How it was run: as §2

[15] = test system: Downy Brome; assay: Pre-emergent herbicidal activity; conditions: Table III; 11.2 kg/h; 2 WAT
How it was run: as §2

[16] = test system: Johnsongrass; assay: Pre-emergent herbicidal activity; conditions: Table III; 11.2 kg/h; 2 WAT
How it was run: as §2

[17] = test system: Lambsquarters; assay: Pre-emergent herbicidal activity; conditions: Table III; 11.2 kg/h; 2 WAT
How it was run: as §2

[18] = test system: Morningglory; assay: Pre-emergent herbicidal activity; conditions: Table III; 11.2 kg/h; 2 WAT
How it was run: as §2

[19] = test system: Quackgrass; assay: Pre-emergent herbicidal activity; conditions: Table III; 11.2 kg/h; 2 WAT
How it was run: as §2

[20] = test system: Smartweed; assay: Pre-emergent herbicidal activity; conditions: Table III; 11.2 kg/h; 2 WAT
How it was run: as §2

[21] = test system: Velvetleaf; assay: Pre-emergent herbicidal activity; conditions: Table III; 11.2 kg/h; 2 WAT
How it was run: as §2

[22] = test system: Yellow Nutsedge; assay: Pre-emergent herbicidal activity; conditions: Table III; 11.2 kg/h; 2 WAT
How it was run: as §2

COC(=O)CN(CP(=O)(Oc1ccccc1)Oc1ccccc1)SSC(C)C [I, Glycine, N-[(diphenoxyphosphinyl)methyl]-N-[(1-methylethyl)dithio]-, methyl ester]
3 (75-100% control): pre-emergent herbicidal activity index [13] | pre-emergent herbicidal activity index [17] | pre-emergent herbicidal activity index [19] | pre-emergent herbicidal activity index [22]
3 (75-99% control): post-emergence herbicidal activity index ([1]; 11.2 kg/h) | post-emergence herbicidal activity index ([2]; Table II, 5.6 kg/h, 4 WAT) | post-emergence herbicidal activity index ([3]; 1.12 kg/h, 4 WAT) | post-emergence herbicidal activity index ([3]; 11.2 kg/h, 4 WAT) | post-emergence herbicidal activity index ([5]; 5.6 kg/h) | post-emergence herbicidal activity index ([6]; Table I, 5.6 kg/h, 4 WAT) | post-emergence herbicidal activity index ([6]; Table II, 1.12 kg/h, 4 WAT) | post-emergence herbicidal activity index ([6]; Table II, 11.2 kg/h, 4 WAT) | post-emergence herbicidal activity index ([7]; Table I, 11.2 kg/h, 4 WAT) | post-emergence herbicidal activity index ([7]; Table II, 5.6 kg/h, 4 WAT) | post-emergence herbicidal activity index ([8]; 5.6 kg/h, 4 WAT) | post-emergence herbicidal activity index ([8]; 11.2 kg/h, 4 WAT) | post-emergence herbicidal activity index ([9]; 11.2 kg/h) | post-emergence herbicidal activity index ([10]; Table II, 1.12 kg/h, 4 WAT) | post-emergence herbicidal activity index ([10]; Table II, 11.2 kg/h, 4 WAT) | post-emergence herbicidal activity index ([11]; Table I, 5.6 kg/h, 4 WAT)
0 (0-24% control): pre-emergent herbicidal activity index [16] | pre-emergent herbicidal activity index [21]
1 (25-49% control): post-emergence herbicidal activity index ([4]; 1.12 kg/h, 4 WAT) | post-emergence herbicidal activity index ([7]; Table II, 11.2 kg/h, 4 WAT) | post-emergence herbicidal activity index ([8]; 0.28 kg/h, 2 WAT) | post-emergence herbicidal activity index ([8]; 1.12 kg/h, 4 WAT) | post-emergence herbicidal activity index ([11]; Table II, 0.28 kg/h, 2 WAT) | post-emergence herbicidal activity index ([11]; Table II, 11.2 kg/h, 4 WAT) | pre-emergent herbicidal activity index [14] | pre-emergent herbicidal activity index [18]
2 (50-74% control): post-emergence herbicidal activity index ([1]; 5.6 kg/h) | post-emergence herbicidal activity index ([2]; Table II, 1.12 kg/h, 4 WAT) | post-emergence herbicidal activity index ([7]; Table II, 1.12 kg/h, 4 WAT) | post-emergence herbicidal activity index ([11]; Table II, 1.12 kg/h, 4 WAT) | pre-emergent herbicidal activity index [12] | pre-emergent herbicidal activity index [15] | pre-emergent herbicidal activity index [20]
0 (0- 24% control): post-emergence herbicidal activity index ([2]; Table II, 0.056 kg/h, 2 WAT) | post-emergence herbicidal activity index ([2]; Table II, 0.28 kg/h, 2 WAT) | post-emergence herbicidal activity index ([2]; Table II, 11.2 kg/h, 4 WAT) | post-emergence herbicidal activity index ([3]; 0.056 kg/h, 2 WAT) | post-emergence herbicidal activity index ([3]; 0.28 kg/h, 2 WAT) | post-emergence herbicidal activity index ([4]; 0.056 kg/h, 2 WAT) | post-emergence herbicidal activity index ([4]; 0.28 kg/h, 2 WAT) | post-emergence herbicidal activity index ([4]; 11.2 kg/h, 4 WAT) | post-emergence herbicidal activity index ([6]; Table II, 0.056 kg/h, 2 WAT) | post-emergence herbicidal activity index ([6]; Table II, 0.28 kg/h, 2 WAT) | post-emergence herbicidal activity index ([7]; Table II, 0.056 kg/h, 2 WAT) | post-emergence herbicidal activity index ([7]; Table II, 0.28 kg/h, 2 WAT) | post-emergence herbicidal activity index ([8]; 0.056 kg/h, 2 WAT) | post-emergence herbicidal activity index ([10]; Table II, 0.056 kg/h, 2 WAT) | post-emergence herbicidal activity index ([10]; Table II, 0.28 kg/h, 2 WAT) | post-emergence herbicidal activity index ([11]; Table II, 0.056 kg/h, 2 WAT)
4 (100% control): post-emergence herbicidal activity index ([2]; Table I, 5.6 kg/h, 4 WAT) | post-emergence herbicidal activity index ([2]; Table I, 11.2 kg/h, 4 WAT) | post-emergence herbicidal activity index ([3]; 5.6 kg/h, 4 WAT) | post-emergence herbicidal activity index ([4]; 5.6 kg/h, 4 WAT) | post-emergence herbicidal activity index ([5]; 11.2 kg/h) | post-emergence herbicidal activity index ([6]; Table I, 11.2 kg/h, 4 WAT) | post-emergence herbicidal activity index ([6]; Table II, 5.6 kg/h, 4 WAT) | post-emergence herbicidal activity index ([7]; Table I, 5.6 kg/h, 4 WAT) | post-emergence herbicidal activity index ([9]; 5.6 kg/h) | post-emergence herbicidal activity index ([10]; Table I, 5.6 kg/h, 4 WAT) | post-emergence herbicidal activity index ([10]; Table I, 11.2 kg/h, 4 WAT) | post-emergence herbicidal activity index ([10]; Table II, 5.6 kg/h, 4 WAT) | post-emergence herbicidal activity index ([11]; Table I, 11.2 kg/h, 4 WAT) | post-emergence herbicidal activity index ([11]; Table II, 5.6 kg/h, 4 WAT)
